Reference: US20220347175A1, “PYRIDAZINONE DERIVATIVE” (Sumitomo Dainippon Pharma Co., Ltd., priority 2018, published 2022)

What was measured:
[1] = target: T1, human Nav1.1 (Homo sapiens, UniProt P35498); assay: Amplification of Nav1.1-derived voltage-dependent sodium current (Nav1.1 current), cell line stably expressing human Nav1.1, automated patch clamp; assay type: cell-based
T1 construct: host or cells: HEK293
Summary of the method: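 Amplification rate (%) is 100 × post-compound/pre-compound Nav1.1 peak current or AUC, minus 100. Ramp-evoked sodium currents were recorded by automated patch clamp in a human Nav1.1 HEK293 stable line, restricted to cells exceeding 500 pA, with compounds added in extracellular solution containing 1% DMSO.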

[2] = target: T2, human Nav1.5 (Homo sapiens, UniProt Q14524); assay: Amplification of Nav1.5-derived voltage-dependent sodium current (Nav1.5 current), cell line stably expressing human Nav1.5, automated patch clamp; assay type: cell-based
T2 construct: expressed in transfected cells; host or cells: CHO-K1 (T-REx System, ThermoFisher Scientific)
T2 sequence (Q14524 1-2015 isoform Q14524-2): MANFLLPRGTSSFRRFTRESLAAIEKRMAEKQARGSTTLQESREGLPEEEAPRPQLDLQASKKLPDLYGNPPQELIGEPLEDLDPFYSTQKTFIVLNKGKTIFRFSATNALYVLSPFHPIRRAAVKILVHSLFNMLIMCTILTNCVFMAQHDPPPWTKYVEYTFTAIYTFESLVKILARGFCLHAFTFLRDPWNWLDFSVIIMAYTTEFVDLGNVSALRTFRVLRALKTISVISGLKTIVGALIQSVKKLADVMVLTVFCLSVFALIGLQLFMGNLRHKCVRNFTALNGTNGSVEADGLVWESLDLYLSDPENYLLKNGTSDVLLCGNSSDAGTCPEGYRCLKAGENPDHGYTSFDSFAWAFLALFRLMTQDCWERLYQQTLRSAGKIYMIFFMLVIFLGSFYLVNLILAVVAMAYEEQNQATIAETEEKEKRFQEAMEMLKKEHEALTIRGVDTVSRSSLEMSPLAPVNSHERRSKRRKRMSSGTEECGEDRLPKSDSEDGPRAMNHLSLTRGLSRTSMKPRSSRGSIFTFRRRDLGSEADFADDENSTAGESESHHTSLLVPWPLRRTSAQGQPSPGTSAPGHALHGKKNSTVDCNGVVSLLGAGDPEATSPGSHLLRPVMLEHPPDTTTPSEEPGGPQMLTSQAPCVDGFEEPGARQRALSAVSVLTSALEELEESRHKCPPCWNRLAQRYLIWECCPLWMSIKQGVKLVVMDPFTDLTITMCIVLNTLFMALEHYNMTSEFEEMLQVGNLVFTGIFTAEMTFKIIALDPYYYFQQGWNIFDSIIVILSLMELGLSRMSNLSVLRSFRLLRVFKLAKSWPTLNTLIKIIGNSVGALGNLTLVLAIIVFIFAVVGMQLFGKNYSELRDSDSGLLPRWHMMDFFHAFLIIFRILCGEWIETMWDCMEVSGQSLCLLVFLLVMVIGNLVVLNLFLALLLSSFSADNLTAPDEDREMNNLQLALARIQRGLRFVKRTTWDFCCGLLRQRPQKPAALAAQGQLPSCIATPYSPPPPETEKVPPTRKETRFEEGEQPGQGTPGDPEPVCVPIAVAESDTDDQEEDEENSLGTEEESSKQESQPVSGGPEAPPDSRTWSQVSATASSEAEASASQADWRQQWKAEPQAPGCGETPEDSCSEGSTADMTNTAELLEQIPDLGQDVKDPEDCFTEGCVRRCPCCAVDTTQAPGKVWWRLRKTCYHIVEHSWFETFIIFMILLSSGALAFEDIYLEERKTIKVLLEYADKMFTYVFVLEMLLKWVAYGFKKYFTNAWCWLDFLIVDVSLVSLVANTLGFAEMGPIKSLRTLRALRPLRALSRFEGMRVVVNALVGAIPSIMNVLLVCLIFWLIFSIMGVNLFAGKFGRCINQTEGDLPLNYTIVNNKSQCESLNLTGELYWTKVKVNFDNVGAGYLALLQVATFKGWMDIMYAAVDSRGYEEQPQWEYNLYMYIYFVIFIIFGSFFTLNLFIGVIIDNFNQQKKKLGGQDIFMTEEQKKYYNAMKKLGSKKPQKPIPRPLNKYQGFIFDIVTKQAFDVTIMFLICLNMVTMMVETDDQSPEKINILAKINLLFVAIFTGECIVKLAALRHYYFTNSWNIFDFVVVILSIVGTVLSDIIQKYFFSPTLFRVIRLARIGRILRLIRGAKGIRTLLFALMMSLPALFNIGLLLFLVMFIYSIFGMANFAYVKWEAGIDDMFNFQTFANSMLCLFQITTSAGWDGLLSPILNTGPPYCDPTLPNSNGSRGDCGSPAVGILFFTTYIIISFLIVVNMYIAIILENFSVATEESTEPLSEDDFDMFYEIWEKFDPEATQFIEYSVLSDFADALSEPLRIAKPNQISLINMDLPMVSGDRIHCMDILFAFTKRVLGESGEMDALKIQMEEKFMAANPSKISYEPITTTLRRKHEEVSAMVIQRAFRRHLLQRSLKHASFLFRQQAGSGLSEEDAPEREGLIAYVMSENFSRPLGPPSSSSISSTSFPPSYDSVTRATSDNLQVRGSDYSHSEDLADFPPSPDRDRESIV

[3] = 10 μmol/L compound, change of the area under the curve of Nav1.1 current (Test Result 1)
[4] = 10 μmol/L compound, change of the area under the curve of Nav1.5 current (Test Result 1)
[5] = compound 1 μmol/L, HEK293 stably expressing human Nav1.1
[6] = compound 1 μmol/L, CHO-K1 stably expressing human Nav1.5
[7] = 10 μmol/L compound, change of the area under the curve of Nav1.1 current (Test Result 1), read-out: Nav1.1 current amplification rate (%)
[8] = 10 μmol/L compound, change of the area under the curve of Nav1.5 current (Test Result 1), read-out: Nav1.5 current amplification rate (%)
[9] = compound 3 μmol/L, HEK293 stably expressing human Nav1.1
[10] = compound 3 μmol/L, CHO-K1 stably expressing human Nav1.5

With CC1CC=C(c2ccc(=O)n(CC(=O)N3CCC(c4ccccc4)CC3)n2)CC1 (racemic) [Example 256] the “Nav1.1 current amplification rate (%)” value [1, 3] was 36% and the “Nav1.5 current amplification rate (%)” value [2, 4] was −30%.

In the case of COc1cc(C2=CCC(C(F)(F)F)CC2)nn(CC(=O)Nc2ccn3ccnc3c2)c1=O (stereo not drawn) [Example 462], the “Nav1.1 current amplification rate (%)” value [1, 3] is reported as 124% and the “Nav1.5 current amplification rate (%)” value [2, 4] is reported as 5%.

For COc1cc(C2=CCC(C)(C)CC2)nn(CC(=O)N2CCc3c(N4CCOCC4)cccc32)c1=O [Example 468], the “Nav1.1 current amplification rate (%)” value [1, 5] was 275% and the “Nav1.5 current amplification rate (%)” value [2, 6] was 75%.

Compound CC1(C)CCC=C(c2ccc(=O)n(CC(=O)Nc3ccc4ocnc4c3)n2)C1 [Example 129] has an activation at 10 µM [1, 7] of 314% and an activation at 10 µM [2, 8] of 25%.

In the case of CC1CCC(c2ccc(=O)n(CC(=O)N3CCc4c(N5CCOCC5)cccc43)n2)CC1 (mixture of isomers) [Example 472], the “Nav1.1 current amplification rate (%)” value [1, 3] is reported as 387% and the “Nav1.5 current amplification rate (%)” value [2, 4] is reported as 56%.

Cc1cc(N2CCC3(CCC3)C2)nn(CC(=O)Nc2ccc3c(c2)OCC3)c1=O [Example 202] showed an activation at 10 µM [1, 7] of 131% and an activation at 10 µM [2, 8] of 3%.

With CC1CC=C(c2ccc(=O)n(CC(=O)N3CCc4c(C5CN(C)C5)cccc43)n2)CC1 (racemic) [Example 300] the “Nav1.1 current amplification rate (%)” value [1, 9] was 140% and the “Nav1.5 current amplification rate (%)” value [2, 10] was 55%.

With Cc1nccn1-c1ccc(NC(=O)Cn2nc(C3=CCC(C)CC3)ccc2=O)cc1 (racemic) [Example 361] the “Nav1.1 current amplification rate (%)” value [1, 5] was 101% and the “Nav1.5 current amplification rate (%)” value [2, 6] was 112%.

For Cc1nc2cc(NC(=O)Cn3nc(C4=CCC(C)CC4)ccc3=O)ccn2c1C (racemic) [Example 329], the “Nav1.1 current amplification rate (%)” value [1, 9] was 100% and the “Nav1.5 current amplification rate (%)” value [2, 10] was 50%.

In the case of Cc1noc2cc(NC(=O)Cn3nc(N4CCC(C)CC4)ccc3=O)ccc12 [Example 84], the “Nav1.1 current amplification rate (%)” value [1, 3] is reported as 315% and the “Nav1.5 current amplification rate (%)” value [2, 4] is reported as 123%.

COc1ncc(-c2cccc3c2CCN3C(=O)Cn2nc(C3=CCC(C)CC3)ccc2=O)cn1 (racemic) [Example 249] was tested, and the “Nav1.1 current amplification rate (%)” value [1, 9] was 584% and the “Nav1.5 current amplification rate (%)” value [2, 10] was 106%.

In the case of O=C(Cn1nc(N2CCC3(CCCC3)C2)ccc1=O)Nc1ccn2ccnc2c1 [Example 167], the activation at 10 µM [1, 7] is reported as 129% and the activation at 10 µM [2, 8] is reported as 21%.

For CC1CC=C(c2ccc(=O)n(CC(=O)N3CCc4c3cccc4C(C)(C)O)n2)CC1 (racemic) [Example 277], the “Nav1.1 current amplification rate (%)” value [1, 5] was 210% and the “Nav1.5 current amplification rate (%)” value [2, 6] was 18%.

In the case of CC1CCN(c2ccc(=O)n(CC(=O)N3CCc4cc(N5CCOCC5)ccc43)n2)CC1 [Example 89], the “Nav1.1 current amplification rate (%)” value [1, 3] is reported as 187% and the “Nav1.5 current amplification rate (%)” value [2, 4] is reported as 34%.

For C[C@H]1CC=C(c2ccc(=O)n(CC(=O)Nc3ccn4ncnc4c3)n2)CC1 [Example 538, 2-{3-[(4R)-4-methylcyclohex-1-en-1-yl]-6-oxopyridazin-1(6H)-yl}-N-([1,2,4]triazolo[1,5-a]pyridin-7-yl)acetamide], the activation at 1 µM ([1]; compound 1 μmol/L, HEK293 stably expressing human Nav1.1, read-out: Nav1.1 current amplification rate (%)) was 135% and the activation at 1 µM ([2]; compound 1 μmol/L, CHO-K1 stably expressing human Nav1.5, read-out: Nav1.5 current amplification rate (%)) was 45%.

CC1CC=C(c2ccc(=O)n(CC(=O)N3CCN(c4ccccn4)CC3)n2)CC1 (racemic) [Example 394] was tested, and the “Nav1.1 current amplification rate (%)” value [1, 3] was 98% and the “Nav1.5 current amplification rate (%)” value [2, 4] was 1%.

Work on Cc1nc2cc(NC(=O)Cn3nc(N4CCC(C)CC4)ccc3=O)cc(Cl)c2o1 [Example 215] yielded an activation at 10 µM [1, 7] of 183% and an activation at 10 µM [2, 8] of 18%.

Work on O=C(Cn1nc(N2CCC3(CCC3)C2)ccc1=O)Nc1ccn2ccnc2c1 [Example 177] yielded an activation at 10 µM [1, 7] of 169% and an activation at 10 µM [2, 8] of 16%.

In the case of CC1CC=C(c2ccc(=O)n(CC(=O)N3CC4(C3)CN(c3cccnc3)C4)n2)CC1 (stereo not drawn) [Example 424], the “Nav1.1 current amplification rate (%)” value [1, 3] is reported as 40% and the “Nav1.5 current amplification rate (%)” value [2, 4] is reported as 2%.

In the case of CC1CCN(c2ccc(=O)n(CC(=O)Nc3ccnc(C#N)c3)n2)CC1 [Example 53], the “Nav1.1 current amplification rate (%)” value [1, 3] is reported as 161% and the “Nav1.5 current amplification rate (%)” value [2, 4] is reported as 11%.

In the case of Cc1cc(=O)n(CC(=O)Nc2ccn3ccnc3c2)nc1C1=CCC(C)(C)CC1 [Example 461], the “Nav1.1 current amplification rate (%)” value [1, 3] is reported as 337% and the “Nav1.5 current amplification rate (%)” value [2, 4] is reported as 50%.

For CC1CC=C(c2ccc(=O)n(CC(=O)N3CCc4c(OCC(C)(C)O)cccc43)n2)CC1 (racemic) [Example 307], the “Nav1.1 current amplification rate (%)” value [1, 9] was 320% and the “Nav1.5 current amplification rate (%)” value [2, 10] was 37%.

In the case of COc1ncc(N2CCN(C(=O)Cn3nc(C4=CCC(C)CC4)ccc3=O)CC2)cc1F (stereo not drawn) [Example 409], the “Nav1.1 current amplification rate (%)” value [1, 9] is reported as 244% and the “Nav1.5 current amplification rate (%)” value [2, 10] is reported as 11%.

With O=C(Cn1nc(N2CCC3(CCC3)C2)c(N2CCCC2)cc1=O)Nc1ccc2ocnc2c1 [Example 208] the activation at 10 µM [1, 7] was 200% and the activation at 10 µM [2, 8] was 18%.
